Assays:
[1] = test system: deoxymyoglobin (deoxy-Mb); test: Release of CO from metal carbonyl complexes (myoglobin assay / CO electrode); format: physicochemical
Experimental: The release of CO from metal carbonyl complexes was assessed spectrophotometrically by measuring the conversion of deoxymyoglobin (deoxy-Mb) to carbonmonoxymyoglobin (MbCO). MbCO has a distinctive absorption spectrum between 500 and 600 nm, and changes at 540 nm were used to quantify the amount of CO liberated. Myoglobin solutions were prepared freshly by dissolving a known concentration of the protein in phosphate buffer, which was also made up to a known concentration and pH. Sodium dithionite (0.1%) was added to convert myoglobin to deoxy-Mb prior to each reading. The CORM was dissolved in the solvent specified in the solubility column of the table of FIGS. 1a-1k, before addition to the myoglobin solution.
The release of CO from metal carbonyl complexes was also detected using a prototype electrode purchased from World Precision Instrument (Stevenage, Herts, UK). The CO electrode is a membrane-covered amperometric sensor which has been designed on a basic operating principle similar to the nitric oxide (NO) sensor. In fact, the CO sensor can be connected to the ISO-NO Mark II meter for detection of the current signals providing that the poise potential is set to a different value (900 mV for CO as opposed to 860 mV for NO). In principle, CO diffuses through the gas permeable membrane and is then oxidized to CO2 on the working electrode. This oxidation will create a current whose magnitude can be related directly to the concentration of CO in solution. The CO sensor was used to generate standard curves and calculate the rates of CO release from a CORM compound at different pHs and temperatures. The electrode was immersed into the solutions at different pHs and equilibrated for 30 min prior to addition of the CORM compound. The experiments were maintained at the desired temperature using a Grant W6 thermostat (Cambridge). This method is described in the applicants' earlier publication WO 2005/114161.
Slow release rates (half-life >200 minutes) are indicated for the comparative compounds, while rapid release rates (half-life <50 minutes) were found for compounds within the invention. […] Compounds having three carbonyl ligands released CO slowly, as did compounds in which a carbon or a nitrogen atom of the ligand bond to the manganese. Slow release is also found for the compound (CORM 325) having Mn—Mn bonding.

Solubility information = format: physicochemical
Excerpt: Uncharged complexes, such as CORM 378, can be made water soluble by the presence of suitable ligands.

RAW264.7 macrophages = test: Anti-inflammatory action in LPS-stimulated RAW264.7 macrophages (nitrite, Griess method); format: cell-based, mouse; conditions: 24 h, 10, 50 or 100 μM compound, LPS 1 μg/ml
Experimental: (2) The anti-inflammatory action was measured in RAW264.7 macrophages incubated for 24 h with 10, 50 or 100 μM of each compound in the presence or absence of Lipopolysaccharide (LPS) (1 μg/ml). Nitrite was used as an indicator of inflammation. * indicates a reduction in inflammation detected at 100 μM; ** indicates a reduction in inflammation detected at 50 μM; *** indicates a reduction in inflammation detected at 10 μM; “None” indicates there was no effect of the compound on inflammation; N.P. indicates assay not performed.
Murine RAW264.7 monocyte macrophages were purchased from the European Collection of Cell Cultures (Salisbury, Wiltshire, UK) and cultured in Dulbecco's modified Eagle's medium (DMEM) supplemented' with 10% fetal bovine serum, 2 mM L-glutamine, 100 units ml^−1 penicillin and 0.1 mg ml^−1 streptomycin. […] Macrophages were exposed for 24 hr to LPS (1 μg ml^−) in the presence or absence of CORMs (10, 50 and 100 μM) and nitrite levels and cytotoxicity were determined at the end of the incubation. Nitrite levels were determined using the Griess method as previously described (Foresti et al. J. Biol. Chem. 272, 18411-18417, (1997)). […] The Griess reagent was added to each well to begin the reaction, the plate was shaken for 10 min and the absorbance read at 550 nm on a Molecular Devices VERSAmax plate reader. […]

isolated aortic rings = test: Vasorelaxation of pre-contracted isolated rat aortic rings; design: species or system Sprague-Dawley rats; conditions: for Contraction of pre-contracted aortic rings after addition of compound: varying concentrations, FIG. 3(a), 3(b)
Experimental: (3) The experiments using the isolated aortic rings were conducted to assess the extent of vasorelaxation. One hundred micromolar (100 μM) of each compound were added to a pre-contracted ring and vasorelaxation was assessed as a percentage of the initial contraction, which was expressed as good (+) or very good (++).
Vasodilatation data for CORM 371 and CORM 376 was measured as described previously by the inventors in their earlier publication, WO 2004/045599. This is described in more detail below.
The method for the preparation of isolated aortic rings has been previously described (Sammut et al Br J Pharmacol 125: 1437-1444, 1998; Motterlini et al Circ Res 90: E17-E24, 2002). The thoracic aorta was isolated from Sprague-Dawley rats (350-450 g) and flushed with cold Krebs-Henseleit buffer (4° C., pH 7.4) containing (in mM): 118 NaCl, 4.7 KCl, […], 1.2 MgSO4.7H2O, 22 NaHCO3, 11 Glucose, 0.03 K^+EDTA, 2.5 CaCl2 and supplemented with 10 μM indomethacin. Each aorta was trimmed of adventitial tissue and ring, sections (˜3 mm length) were produced from the mid aortic segment. The rings were then mounted between two stainless steel hooks in 9-mL organ baths containing Krebs-Henseleit buffer which was maintained at 37° C. and continuously gassed with 95% O2-5% CO2. One hook was attached to a Grass FT03 isometric force transducer whilst the other was anchored to a sledge for regulation of the resting tension of the aortic ring. The rings were initially equilibrated for 30 min under a resting tension of 2 g which was previously determined to be optimal. Continuous recording of tension was made on a Grass 7D polygraph (Grass Instruments, Quincy, Mass.) in combination with a Biopac MP100 system using AcqKnowledge™ software (Linton Instruments, Norfolk, UK). Before each protocol was carried out, rings were contracted with a standard dose of KCl (100 mM) in order to provide an internal reference and to control for variability in contractile responsiveness between tissues. The relaxation response to CORM-3 (25 μM) in the presence or absence of YC-1 (5 μM final concentration, 30 min pre-incubation) was assessed in aortic rings pre-contracted with phenylephrine (1 μmol/L).

## O=[C]=[Mn]([Br])(=[C]=O)(=[C]=O)(=[C]=O)=[C]=O [CORM 309, [MnBr(CO)5]]
[1]
  CO release rate (in words): much longer CO release times

## O=[C]=[Mn]([I])(=[C]=O)(=[C]=O)(=[C]=O)=[C]=O [CORM 310, [MnI(CO)5]]
[1]
  CO release rate (in words): much longer CO release times

## [C-]#[O+].[C-]#[O+].[C-]#[O+].[C-]#[O+].[C-]#[O+].[Cl][Mn] [CORM 318, [MnCl(CO)5]]
[1]
  CO release rate (in words): much longer CO release times

## [C-]#[O+].[C-]#[O+].[C-]#[O+].[C-]#[O+].[C-]#[O+].[C-]#[O+].[C-]#[O+].[C-]#[O+].c1ccc([PH]([Mn][Mn][PH](c2ccccc2)(c2ccccc2)c2ccccc2)(c2ccccc2)c2ccccc2)cc1 [CORM 325, [Mn(CO)4(PPh3)]2]
[1]
  CO release rate (in words): Slow release

## OCCN(CCO)C(=S)[S-].[C-]#[O+].[C-]#[O+].[C-]#[O+].[C-]#[O+].[Mn+] [CORM 378, Mn(CO)4(η^2-S2CN{CH2CH2OH}2)]
Solubility information
  Solubility in water: water soluble

## C[N+](C)(C)C.O=C([O-])c1ccccc1.O=C([O-])c1ccccc1.O=C([O-])c1ccccc1.[C-]#[O+].[C-]#[O+].[C-]#[O+].[C-]#[O+].[C-]#[O+].[C-]#[O+].[Mn+].[Mn+] [CORM 379, [Me4N][Mn2(CO)6(benzoate)3]]
[1]
  CO release rate (in words): rapid CO release
RAW264.7 macrophages
  Anti-inflammatory action (nitrite as indicator of inflammation): did not do so

## CC(=O)[S-].CC(=O)[S-].C[N+](C)(C)C.[C-]#[O+].[C-]#[O+].[C-]#[O+].[C-]#[O+].[Mn+] [CORM-371, [Me4N][Mn(CO)4(thioacetate)2]]
Isolated aortic rings
  Vasodilator activity in the aortic rings model: good vasodilators
  Contraction of pre-contracted aortic rings after addition of compound: concentration-dependent decrease in contraction

## [K][(OC)3Mn(μ-OCOCH3)3Mn(CO)3] [CORM-376]
Isolated aortic rings
  Vasodilator activity in the aortic rings model: good vasodilators
  Contraction of pre-contracted aortic rings after addition of compound: concentration-dependent decrease in contraction
Isolated aortic rings; glibenclimide at two different concentrations, FIG. 3(c)
  Dilatation in presence of glibenclimide (inhibition of ATP-dependent K+ channels): did not affect
Isolated aortic rings; with ODQ, FIG. 3(c)
  Vasorelaxation in presence of guanylate cyclase inhibitor ODQ: significantly prevented

## [Me4N][Mn(CO)4(Malonate)] [CORM 350]
[1]
  CO release rate (in words): rapid CO release
RAW264.7 macrophages
  Anti-inflammatory action (nitrite as indicator of inflammation): did not do so
